Results reported in patent publication US8314234B2, “Bicyclic pyrimidine kinase inhibitors” (Janssen Pharmaceutica N.V., priority 2006, dated 2012).

Assays:
EGFR = molecular target: T1, EGFR (Homo sapiens, UniProt P00533); assay: EGFR Kinase Assay; type: biochemical; settings: test concentration of 2 μM
T1 construct: intracellular portion of EGFR started at nucleotide 2189 (corresponding to amino acid 667) and ended at the termination codon; made in house; host or cells: Sf9 insect cells (baculovirus)
T1 sequence (P00533 669-1210 limits assumed): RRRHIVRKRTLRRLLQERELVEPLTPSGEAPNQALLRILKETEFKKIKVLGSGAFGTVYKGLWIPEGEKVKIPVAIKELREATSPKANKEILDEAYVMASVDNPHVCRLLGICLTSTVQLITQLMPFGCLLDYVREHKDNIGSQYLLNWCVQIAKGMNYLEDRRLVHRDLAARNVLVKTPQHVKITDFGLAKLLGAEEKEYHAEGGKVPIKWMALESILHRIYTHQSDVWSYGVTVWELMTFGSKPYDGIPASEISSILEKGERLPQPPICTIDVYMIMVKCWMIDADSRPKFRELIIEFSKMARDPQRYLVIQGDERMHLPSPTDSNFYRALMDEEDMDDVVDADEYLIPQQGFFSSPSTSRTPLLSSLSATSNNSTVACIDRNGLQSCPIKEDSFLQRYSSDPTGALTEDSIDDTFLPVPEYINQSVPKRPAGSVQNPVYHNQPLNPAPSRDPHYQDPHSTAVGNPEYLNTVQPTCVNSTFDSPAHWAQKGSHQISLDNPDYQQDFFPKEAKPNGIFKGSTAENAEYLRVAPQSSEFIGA
Source text: The EGFR kinase used was a fusion of Glutathione-S-Transferase (GST) and a PCR amplified intracellular portion of EGFR (NM_005228). The intracellular portion of EGFR started at nucleotide 2189 (corresponding to amino acid 667) and ended at the termination codon. The portion was PCR amplified with primers that added the lambda attB sequences to each end, recombined into an entry vector, then into a GST destination vector (as described in Gateway Technologies Manual by Invitrogen Corporation, Carlsbad, Calif.).
The destination vector was recombined in the DH10BAC strain of bacteria to produce a bacmid. The bacmid was transfected into Sf9 cells and the supernatant containing the baculovirus was collected. The GSTEGFR protein was purified using large cultures of Sf9 cells infected with stock virus. After an appropriate period of time, the cells were collected and lysed. The GSTEGFR was then purified from the lysate on Glutathione-Sepharose columns (as described by Amersham Biosciences, Buckinghamshire, United Kingdom).
The EGFR substrate was prepared by biotinylating polyGluTyr (128 mg) (Sigma, St. Louis, Mo.) in a 1×PBS buffer incubated together with a 12-fold molar excess of Sulfo-NHS-LC-Biotin on ice for at least 2 hrs. The free biotin was separated from the biotinylated polyGluTyr on a gel filtration column.
A mixture of a 10× kinase buffer (500 mM Tris at pH 8.0, 100 mM Magnesium Chloride and 1 mM Sodium Vanadate), DTT (1 mM final from 500 mM stock), ATP (5 μM final from 10 mM stock), biotinylated polyGluTyr (10 μg/μL stock), γ-^33P ATP (10 μCi/μL stock) and water was added to each well (90 μL/well) of a Streptavidin Flashplate (Perkin Elmer, Wellesley, Mass.).
Test compound in 100% DMSO (2 μL) was added to the appropriate wells. Diluted GSTEGFR (1:300 dilution in 50 mM Tris at pH 8.0 and 0.1% bovine serum albumin) (10 μL) was added to the wells to initiate the reactions.
The plates were incubated at 30° C. for 1 hr with shaking. The reacted contents were removed and the plates were sequentially washed three times with a 1×PBS stop buffer (300 μL without Magnesium and Calcium) and 100 mM EDTA. After the final wash, the same stop buffer (200 μL) was added to the wells. The plates were then sealed and read on the TopCount scintillation counter.
Test compounds were assayed in triplicate at 16 concentrations at half-log dilutions starting at 200 uM. A maximum and minimum signal for the assay was determined on each plate. The percent inhibition of a test compound was calculated according to the formula
For a series of test concentrations, the IC50 was derived by graphing percent inhibition against the log of the concentrations tested for a given compound. The percent inhibition results are shown in Table 1 at a test concentration of 2 μM. For those compounds with an IC50, the IC50 value is shown in parentheses.

CDK1 = molecular target: T2, CDK1 (Homo sapiens, UniProt P06493); assay: CDK-1 screening assay; type: biochemical
T2 construct: purchased New England Biolabs, Beverly, Mass; 6020; host or cells: insect cells
T2 sequence (P06493 whole entry): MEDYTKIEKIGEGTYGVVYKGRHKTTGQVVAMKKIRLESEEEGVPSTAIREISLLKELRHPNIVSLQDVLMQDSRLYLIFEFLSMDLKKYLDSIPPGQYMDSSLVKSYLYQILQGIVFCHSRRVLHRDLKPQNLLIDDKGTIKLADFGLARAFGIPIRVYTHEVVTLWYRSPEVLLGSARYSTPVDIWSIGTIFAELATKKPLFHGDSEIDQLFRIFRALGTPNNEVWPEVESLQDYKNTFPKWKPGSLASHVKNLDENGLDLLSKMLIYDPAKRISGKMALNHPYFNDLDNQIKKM
T2 sequence (P14635 whole entry partner): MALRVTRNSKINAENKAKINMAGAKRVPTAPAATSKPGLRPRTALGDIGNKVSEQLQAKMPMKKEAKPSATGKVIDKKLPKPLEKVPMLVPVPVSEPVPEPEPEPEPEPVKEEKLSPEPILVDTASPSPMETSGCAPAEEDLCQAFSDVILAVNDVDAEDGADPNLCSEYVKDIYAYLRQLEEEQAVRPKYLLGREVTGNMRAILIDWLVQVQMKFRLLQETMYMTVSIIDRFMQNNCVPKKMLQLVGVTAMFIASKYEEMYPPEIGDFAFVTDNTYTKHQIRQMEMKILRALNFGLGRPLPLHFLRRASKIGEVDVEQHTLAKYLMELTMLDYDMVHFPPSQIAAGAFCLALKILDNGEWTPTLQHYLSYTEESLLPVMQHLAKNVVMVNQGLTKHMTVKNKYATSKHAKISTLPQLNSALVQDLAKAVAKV
Protocol: (§1) 70 μL of the kinase reaction mixture was dispensed into the well of a streptavidin coated FlashPlate™ (Cat. #SMP103, NEN, Boston, Mass.).
(§2) Test compound stock in 100% DMSO (1 μL) was added to the wells resulting in a final concentration of 1% DMSO in the reaction with a 100 μL final reaction volume. Each enzyme was diluted in 50 mM Tris-HCl pH=8.0, 0.1% BSA and 30 μL was added to each well to initiate the reaction. The reaction was incubated for one hour at 30° C. At the end of the 1 hr incubation, the reaction was terminated by aspirating the mixture from the plate and washing the wells twice with PBS containing 100 mM EDTA. The biotinylated peptide substrate became immobilized on the Flashplate and the incorporation of ^33P-γ-ATP was measured by reading the plate on a scintillation counter. Inhibition of the enzymatic activity was measured by observing a reduced amount of ^33P-γ-ATP incorporated into the immobilized peptide.
(§3) A maximum and minimum signal for the assay was determined on each plate. The percent inhibition of a test compound was calculated according to the formula: […]
(§4) The term “ND” means “not determined.”

CDK2 = molecular target: T3, CDK2 (Homo sapiens, UniProt P24941); assay: CDK-2 screening assay; type: biochemical
T3 construct: purchased Upstate Biotech, Lake Placid, N.Y
Protocol: as §1, §2
The CDK2 enzyme in complex with cyclin A is commercially available (Upstate Biotech, Lake Placid, N.Y.).
as §3, §4

VEGFR2 = VEGFR2 (Rattus norvegicus, UniProt O08775); assay: VEGFR2 screening assay; type: biochemical
VEGFR2, sequence (O08775 786-1343): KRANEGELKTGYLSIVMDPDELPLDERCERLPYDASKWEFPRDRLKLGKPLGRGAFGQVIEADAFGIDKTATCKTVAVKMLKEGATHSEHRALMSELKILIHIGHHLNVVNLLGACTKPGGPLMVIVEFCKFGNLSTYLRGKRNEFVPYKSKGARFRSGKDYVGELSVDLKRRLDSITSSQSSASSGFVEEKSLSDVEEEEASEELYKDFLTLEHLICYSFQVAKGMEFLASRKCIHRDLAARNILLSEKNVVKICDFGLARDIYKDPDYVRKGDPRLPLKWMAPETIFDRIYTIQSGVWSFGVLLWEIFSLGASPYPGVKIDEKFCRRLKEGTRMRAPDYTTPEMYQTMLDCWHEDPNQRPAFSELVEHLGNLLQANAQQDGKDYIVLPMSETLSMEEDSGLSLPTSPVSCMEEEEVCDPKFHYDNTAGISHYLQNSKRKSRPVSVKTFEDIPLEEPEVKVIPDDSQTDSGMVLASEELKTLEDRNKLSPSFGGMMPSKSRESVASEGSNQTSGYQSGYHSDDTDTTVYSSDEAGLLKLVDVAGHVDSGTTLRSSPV
Protocol: A kinase reaction mixture was prepared containing 50 mM Tris-HCl pH=8, 10 mM MgCl2, 0.1 mM […], 1 mM DTT, 10 μM ATP, 0.025 μM biotinylated histone-H1 peptide substrate and 0.2 μCuries per well ^33P-γ-ATP (2000-3000 Ci/mmol). 70 μL of the kinase reaction mixture was dispensed into the well of a streptavidin coated FlashPlate™ (Cat. #SMP103, NEN, Boston, Mass.).
as §2
The VEGF-R2 enzyme is a fusion protein containing a polyhistidine tag at the N terminus followed by amino acids 786 to 1343 of the rat VEGF-R2 kinase domain (Accession number U93306). The assay used 150 ng of the N-terminal biotinylated peptide biotin-[…]-amide SEQ ID NO: 2) (VEGF-R2) per well.
as §3
For a series of test concentrations, the IC50 was derived by graphing percent inhibition against the log of the concentrations tested for a given compound with results shown in Table 2. For those compounds without an IC50, the inhibition values in percent are shown at a test concentration of 2 μM. The term “ND” means “not determined.”

[1] = system: HeLa cervical adenocarcinoma; assay: Cell Proliferation Inhibition Assay (14C-thymidine incorporation), HeLa; type: cell-based; settings: Homo sapiens
Source text: (§5) The ability of a test compound to inhibit unregulated cell proliferation may be determined by measuring incorporation of ^14C-labelled thymidine into newly synthesized DNA within cell lines derived from carcinomas originating from several tissues. Accordingly, the anti-proliferative effect of a compound on cells with a variety of phenotypes may be determined.
(§6) Carcinoma cell lines include those such as HeLa cervical adenocarcinoma (American Type Culture Collection (ATCC), Virginia, Cat. #CCL-2), A375 malignant melanoma (ATCC CRL-1619), SK-OV-3 ovarian adenocarcinoma (ATCC HTB-77), HCT-116 colon carcinoma (CCL-247), PC-3 prostate adenocarcinoma (ATCC CRL-1435), and MDA-MB-231 (Xenogen Corp.)
(§7) The carcinoma cells are trypsinized and counted. The cells (3000-8000 count) are added to each well of a 96-well CytoStar tissue culture treated scintillating microplate (Amersham #RPNQ0160) in complete medium (100 μL) and the plate is then incubated in complete medium for 24 hrs at 37° C. in an inert atmosphere containing 5% CO2. Test compound (1 μL) in 100% DMSO is added to the plate test-wells with DMSO only added to control-wells. The plate is incubated in complete medium for a second 24 hr period at 37° C. in an atmosphere containing 5% CO2.
(§8) An aliquot of a solution of Methyl ^14C-thymidine (56 mC/mmol) (NEN #NEC568 or Amersham #CFA532) and complete medium (20 uL to provide 0.2 μCi/well) is then added to each well and the plate is incubated for a third 24 hr period at 37° C. in an atmosphere containing 5% CO2. The plate contents are then discarded, the plate is washed twice with PBS (200 μL) and then PBS (200 μL) is added to each well. The plate is sealed and the degree of methyl ^14C-thymidine incorporation is quantified on a Packard Top Count.

HCT-116 colon carcinoma = assay: Cell Proliferation Inhibition Assay (14C-thymidine incorporation), HCT-116; type: cell-based; settings: Homo sapiens
Source text: as §5, §6, §7, §8

A375 malignant melanoma = assay: Cell Proliferation Inhibition Assay (14C-thymidine incorporation), A375; type: cell-based; settings: Homo sapiens, A-375
Source text: as §5, §6, §7, §8

| SMILES | inhibition at 2 µM (EGFR) [%] | IC50 (CDK1) [nM] | IC50 (CDK2) [nM] | IC50 (VEGFR2) [µM] | IC50 [1] [µM] | IC50 (HCT-116 colon carcinoma) [µM] | IC50 (A375 malignant melanoma) [µM] |
| --- | --- | --- | --- | --- | --- | --- | --- |
| c1cc2[nH]ncc2cc1Nc1nc(Nc2ccc3[nH]ncc3c2)c2cn[nH]c2n1 [Cpd 9, N^4,N^6-bis-(1H-indazol-5-yl)-1H-pyrazolo[3,4-d]pyrimidine-4,6-diamine] | 47 | 145 | 40 | 0.43 | 100 | 100 | 100 |
| O=S(=O)(NCCO)c1ccc(Nc2nc(Nc3ccc(S(=O)(=O)NCCO)cc3)c3cnn(C4CCCCC4)c3n2)cc1 [Cpd 17, 1-cyclohexyl-N^4,N^6-bis-{4-[(2-hydroxy-ethyl)-amino-sulfonyl]-phenyl}-1H-pyrazolo[3,4-d]pyrimidine-4,6-diamine] | 22 | 12000 | 3880 | 90 | 100 | 100 | 100 |
| NS(=O)(=O)c1ccc(Nc2nc(Nc3ccc(S(N)(=O)=O)cc3)c3cnoc3n2)cc1 [Cpd 5, N^4,N^6-bis-[4-(amino-sulfonyl)-phenyl]-isoxazolo[5,4-d]pyrimidine-4,6-diamine] | 39 | 2530 | 443 | 2.45 | 70.7 | 38.2 | 27 |
| CC(=O)n1ncc2c(Nc3ccc(S(=O)(=O)NCCO)cc3)nc(Nc3ccc(S(=O)(=O)NCCO)cc3)nc21 [Cpd 21, 1-acetyl-N^4,N^6-bis-{4-[(2-hydroxy-ethyl)-amino-sulfonyl]-phenyl}-1H-pyrazolo[3,4-d]pyrimidine-4,6-diamine] | 53 | 1870 | 533 | 13.2 | 100 | 100 | 100 |
| NS(=O)(=O)c1ccc(Nc2nc(Nc3ccc4[nH]ncc4c3)nc3[nH]ncc23)cc1 [Cpd 12, 4-[6-(1H-indazol-5-ylamino)-1H-pyrazolo[3,4-d]pyrimidin-4-ylamino]-benzenesulfonamide] | 44 | 568 | 432 | 0.536 | 36 | 10 | 85.2 |
| c1cc2cc(Nc3nc(Nc4ccc5[nH]ccc5c4)c4cn[nH]c4n3)ccc2[nH]1 [Cpd 13, N^4,N^6-bis-(1H-indol-5-yl)-1H-pyrazolo[3,4-d]pyrimidine-4,6-diamine] | -4 | 2590 | 494 | 3.67 | 4 | 2.6 | 1.9 |
| NS(=O)(=O)c1ccc(Nc2nc(Nc3ccccn3)c3cnoc3n2)cc1 [Cpd 7, 4-[4-(pyridin-2-ylamino)-isoxazolo[5,4-d]pyrimidin-6-ylamino]-benzenesulfonamide] | 21 | > 100000 | > 10000 | > 100 | 100 | 10 | 100 |

More lines, now with the values ahead:

| inhibition at 2 µM (EGFR) [%] | IC50 (CDK1) [nM] | IC50 (CDK2) [nM] | IC50 (VEGFR2) [µM] | IC50 [1] [µM] | IC50 (HCT-116 colon carcinoma) [µM] | IC50 (A375 malignant melanoma) [µM] | SMILES |
| --- | --- | --- | --- | --- | --- | --- | --- |
| 26 | > 100000 | 4400 | 23.1 | 25 | 100 | 100 | O=S(=O)(NCCO)c1ccc(Nc2nc(Nc3ccccc3)c3cnoc3n2)cc1 [Cpd 20, N-(2-hydroxy-ethyl)-4-(4-phenylamino-isoxazolo[5,4-d]pyrimidin-6-ylamino)-benzenesulfonamide] |
| 31 | 1520 | 377 | 3.49 | 3.4 | 10 | 1 | O=S(=O)(NCCO)c1ccc(Nc2nc(Nc3ccc(C(F)(F)F)cc3)c3cn[nH]c3n2)cc1 [Cpd 10, N-(2-hydroxy-ethyl)-4-[4-(4-trifluoromethyl-phenylamino)-1H-pyrazolo[3,4-d]pyrimidin-6-ylamino]-benzenesulfonamide] |
| 78 | 79 | 18 | 0.328 | 10 | 100 | 32.6 | O=S(=O)(NCCO)c1ccc(Nc2nc(Nc3ccc(S(=O)(=O)NCCO)cc3)c3cn[nH]c3n2)cc1 [Cpd 3, N^4,N^6-bis-{4-[(2-hydroxy-ethyl)-amino-sulfonyl]-phenyl}-1H-pyrazolo[3,4-d]pyrimidine-4,6-diamine] |
| 12 | > 100000 | 9180 | 75 | 100 | 100 | 100 | O=S(=O)(NCCO)c1ccc(Nc2nc(Nc3ccc(S(=O)(=O)NCCO)cc3)c3cnoc3n2)cc1 [Cpd 19, N^4,N^6-bis-{4-[(2-hydroxy-ethyl)-amino-sulfonyl]-phenyl}-isoxazolo[5,4-d]pyrimidine-4,6-diamine] |
